Laboratory results from patent publication US20240308992A1 (Biopolar Youtang(Guangdong) Pharmaceutical Co., Ltd., priority 2021, published 2024).

Target: T1, Drak2 (Homo sapiens, UniProt O94768)
T1 sequence (O94768 1-372): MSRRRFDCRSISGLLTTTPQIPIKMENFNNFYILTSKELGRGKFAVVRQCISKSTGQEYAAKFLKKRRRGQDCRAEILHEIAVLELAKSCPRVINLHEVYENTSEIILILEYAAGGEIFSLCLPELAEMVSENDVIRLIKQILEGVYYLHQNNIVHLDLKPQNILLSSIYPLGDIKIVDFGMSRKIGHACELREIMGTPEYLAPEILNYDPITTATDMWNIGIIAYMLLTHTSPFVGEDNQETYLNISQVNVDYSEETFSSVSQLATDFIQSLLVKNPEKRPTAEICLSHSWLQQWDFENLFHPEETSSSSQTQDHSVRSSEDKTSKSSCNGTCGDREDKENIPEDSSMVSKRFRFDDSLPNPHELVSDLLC
Assay: Drak2 activity test, ADP-Glo kinase assay (Promega)
Assay type: biochemical
Conditions: inhibition of Drak2 kinase activity, 2 h room temperature, activity range classes, read-out: IC50_Drak2

SMILES	IC50 [nM]
COc1cc(-c2cncc(-c3cc(NC(=O)CC4CCC4)cs3)n2)ccc1OCCN1CCOCC1 [Example 169, 2-cyclobutyl-N-(5-(6-(3-methoxy-4-(2-morpholinylethoxy)phenyl)pyrazin-2-yl)thiophen-3-yl) acetamide]	11 to 100
COc1cc(-c2cncc(-c3cc(NC(=O)CC4CCC4)cs3)n2)ccc1OCCN1CCCC1=O [Example 170, 2-Cyclobutyl-N-{5-[6-(3-methoxy-4-{[2-(2-oxotetrahydro-1H-pyrrol-1-yl)ethyl]oxy}phenyl)pyrazin-2-yl]thiophen-3-yl} acetamide]	11 to 100
COc1cc(-c2cncc(-c3cc(NC(=O)CC4CCC4)cs3)n2)ccc1OC(O)CN1CCOCC1=O (stereo not shown) [Example 171]	11 to 100
COc1cc(-c2cncc(-c3cc(NC(=O)CC4CCC4)cs3)n2)ccc1OCCc1ccccn1 [Example 172, 2-cyclobutyl-N-{5-[6-(3-methoxy-4-{[2-(pyridin-2-yl)ethyl]oxy}phenyl)pyrazin-2-yl]thiophen-3-yl} acetamide]	101 to 1000
COc1cc(-c2cncc(-c3cc(NC(=O)CC4CCC4)cs3)n2)ccc1OCCN1CCN(C)CC1 [Example 173, 2-cyclobutyl-N-{5-[6-(3-methoxy-4-{[2-(4-methylpiperazin-1-yl)ethyl]oxy}phenyl)pyrazin-2-yl]thiophen-3-yl}acetamide]	11 to 100
COc1cc(-c2cncc(-c3cc(NC(=O)CC4CCC4)cs3)n2)ccc1OCCc1cnccn1 [Example 174, 2-cyclobutyl-N-{5-[6-(3-methoxy-4-{[2-(pyrazin-2-yl)ethyl]oxy}phenyl)pyrazin-2-yl]thiophen-3-yl} acetamide]	11 to 100
COc1cc(-c2cncc(-c3cc(NC(=O)CC4CCC4)cs3)n2)ccc1OCCN1CCn2ncnc2C1 [Example 175, 2-cyclobutyl-N-{5-[6-(3-methoxy-4-{[2-(5,6,7,8-tetrahydro [1,2,4]triazolo [1,5-a]pyrazin-7-yl)ethyl]oxy}phenyl)pyrazin-2-yl]thiophen-3-yl} acetamide]	11 to 100
COc1cc(-c2cncc(-c3cc(NC(=O)CC4CCC4)cs3)n2)ccc1OCC(=O)N1CCN(C)CC1 [Example 176, 2-cyclobutyl-N-{5-[6-(3-methoxy-4-{[2-(4-methylpiperazin-1-yl)-2-oxoethyl]oxy}phenyl)pyrazin-2-yl]thiophen-3-yl} acetamide]	< 10
COc1cc(-c2cncc(-c3cc(NC(=O)CC4CCC4)cs3)n2)ccc1OCCN1CCN(C2CCN(C)CC2)CC1 [Example 177, 2-cyclobutyl-N-(5-{6-[3-methoxy-4-({2-[4-(1-methylhexahydropyridin-4-yl)piperazin-1-yl]ethyl}oxy)phenyl]pyrazin-2-yl}thiophen-3-yl) acetamide]	11 to 100
COc1cc(-c2cncc(-c3cc(NC(=O)CC4CCC4)cs3)n2)ccc1OCCN1CC2(CN(C)C2)C1 [Example 178, 2-cyclobutyl-N-{5-[6-(3-methoxy-4-{[2-(6-methyl-2,6-diazaspiro [3.3]hept-2-yl)ethyl]oxy}phenyl)pyrazin-2-yl]thiophen-3-yl} acetamide]	11 to 100
CCCCC(=O)Nc1csc(-c2cncc(-c3ccc(OCCN4CCOCC4)c(OC)c3)n2)c1 [Example 179, N-{5-[6-(3-methoxy-4-{[2-(morpholin-4-yl)ethyl]oxy}phenyl)pyrazin-2-yl]thiophen-3-yl} pentanamide]	11 to 100
CCCCC(=O)Nc1csc(-c2cncc(-c3ccc(OCCN4CCS(=O)(=O)CC4)c(OC)c3)n2)c1 [Example 180, N-{5-[6-(4-{[2-(1,1-dioxo-1 λ^6-1,4-thiomorpholin-4-yl)ethyl]oxy}-3-methoxyphenyl)pyrazin-2-yl]thiophen-3-yl} pentanamide]	11 to 100
CCCCC(=O)Nc1csc(-c2cncc(-c3ccc(O)c(OC)c3)n2)c1 [Example 181, N-{5-[6-(4-hydroxy-3-methoxyphenyl)pyrazin-2-yl]thiophen-3-yl}pentanamide]	11 to 100
CCCCNC(=O)c1csc(-c2cncc(-c3ccc(OC)c(OC)c3)n2)c1 [Example 182, N-butyl-5-[6-(3,4-dimethoxyphenyl)pyrazin-2-yl] thiophen-3-formamide]	101 to 1000
COc1cc(-c2cncc(-c3cc(NC(=O)CC4CCC4)cs3)n2)ccc1O [Example 183]	11 to 100
COc1cc(-c2cncc(-c3cc(NC(=O)CC4CCC4)cs3)n2)ccc1OCC1CCN(C)CC1 [Example 184, 2-Cyclobutyl-N-(5-(6-(3-methoxy-4-((1-methylpiperidin-4-yl)methoxy)phenyl)pyrazin-2-yl)thiophen-3-yl) acetamide]	11 to 100
COc1cc(-c2cncc(-c3cc(NC(=O)CC4CC(F)(F)C4)cs3)n2)ccc1OCCN1CCOCC1 [Example 185, 2-(3,3-difluorocyclobutyl)-N-(5-(6-(3-methoxy-4-(2-morpholinylethoxy)phenyl)pyrazin-2-yl)thiophen-3-yl) acetamide]	11 to 100

SMILES	IC50 [nM]
COc1cc(-c2cncc(-c3cc(NC(=O)CC4CCC4)cs3)n2)ccc1O [Example 186]	< 10
COc1cc(-c2cncc(-c3cc(NC(=O)CC4CCC4)cs3)n2)ccc1OCCc1cnn(C)c1 [Example 187, 2-Cyclobutyl-N-(5-(6-(3-methoxy-4-(2-(1-methyl-1H-pyrazol-4-yl)ethoxy)phenyl)pyrazin-2-yl)thiophen-3-yl) acetamide]	11 to 100
CCCCCCc1csc(-c2cncc(-c3ccc(OC)c(OC)c3)n2)c1 [Example 188, 2-(3,4-Dimethoxyphenyl)-6-(4-hexylthiophen-2-yl) pyrazine]	1000 to 10000
COc1cc(-c2cncc(-c3cc(NC(=O)CC4CCC4)cs3)n2)ccc1OCCN1CCCC1 [Example 189, 2-Cyclobutyl-N-(5-(6-(3-methoxy-4-(2-(pyrrolidin-1-yl)ethoxy)phenyl)pyrazin-2-yl)thiophen-3-yl) acetamide]	< 10
COc1cc(-c2cncc(-c3cc(NC(=O)CC4CCC4)cs3)n2)ccc1OCCN1CCSCC1 [Example 190]	11 to 100
COc1cc(-c2cncc(-c3cc(NC(=O)CC4CCC4)cs3)n2)ccc1OCC(=O)N1CCOCC1 [Example 191, 2-Cyclobutyl-N-{5-[6-(3-methoxy-4-{[2-(morpholin-4-yl)-2-oxoethyl]oxy}phenyl)pyrazin-2-yl]thiophen-3-yl} acetamide]	< 10
COc1cc(-c2cncc(-c3cc(NC(=O)CC4CCC4)cs3)n2)ccc1OCC(=O)N1CCN(C2CCN(C)CC2)CC1 [Example 192, 2-Cyclobutyl-N-(5-{6-[3-methoxy-4-({2-[4-(1-methylhexahydropyridin-4-yl)piperazin-1-yl]-2-oxoethyl}oxy)phenyl]pyrazin-2-yl}thiophen-3-yl) acetamide]	11 to 100
CCCCC(=O)Nc1csc(-c2cncc(-c3ccc(OCCN4CCSCC4)c(OC)c3)n2)c1 [Example 193]	11 to 100
CCCCC(=O)Nc1csc(-c2cncc(-c3ccc(OCCN4CC[S+]([O-])CC4)c(OC)c3)n2)c1 [Example 194, N-{5-[6-(3-methoxy-4-{[2-(1-oxo-1λ4-thiomorpholin-4-yl)ethyl]oxy}phenyl)pyrazin-2-yl]thiophen-3-yl} pentanamide]	11 to 100
CCCCC(=O)Nc1csc(-c2cncc(-c3cccc(OC)c3)n2)c1 [Example 195, N-{5-[6-(3-methoxyphenyl)pyrazin-2-yl]thiophen-3-yl} pentanamide]	11 to 100
CCCCC(=O)Nc1csc(-c2cncc(-c3ccc(N)c(OC)c3)n2)c1 [Example 196, N-{5-[6-(4-amino-3-methoxyphenyl)pyrazin-2-yl]thiophen-3-yl}pentanamide]	< 10
CCCCC(=O)Nc1csc(-c2cncc(-c3cccc(O)c3)n2)c1 [Example 197, N-(5-(6-(3-hydroxyphenyl)pyrazin-2-yl)thiophen-3-yl) pentanamide]	11 to 100
CCCCC(=O)Nc1csc(-c2cncc(-c3cccc(C#N)c3)n2)c1 [Example 198, N-{5-[6-(3-cyanophenyl)pyrazin-2-yl]thiophen-3-yl} pentanamide]	101 to 1000
CCCCC(=O)Nc1csc(-c2cncc(-c3ccc(C(=O)N(C)C4CC5(C4)CN(C)C5)c(OC)c3)n2)c1 [Example 199, 2-Methoxy-N-methyl-N-(2-methyl-2-azaspiro[3.3]heptane-6-yl)-4-(6-(4-pentamidothiophen-2-yl)pyrazin-2-yl) benzamide]	11 to 100
COc1cc(-c2cncc(-c3cc(OCC[C@H](C)CN)cs3)n2)ccc1C(=O)N(C)C1CCN(C)CC1 [Example 200, 4-[6-(4-{[(3S)-4-amino-3-methylbutyl]oxy}thiophen-2-yl)pyrazin-2-yl]-2-methoxy-N-methyl-N-(1-methylhexahydropyridin-4-yl) benzamide]	11 to 100
COc1cc(-c2cncc(-c3cc(NC(=O)C(C)(C)C4CCC4)cs3)n2)ccc1C(=O)N(C)C1CC2(C1)CN(C)C2 [Example 201, 4-(6-{4-[(2-cyclobutyl-2-methylpropionyl)amino]thiophen-2-yl}pyrazin-2-yl)-2-methoxy-N-methyl-N-(2-methyl-2-azaspiro [3.3]hept-6-yl) benzamide]	1000 to 10000
COc1cc(-c2cncc(-c3cc(NC(=O)CC4CC(F)(F)C4)cs3)n2)ccc1C(=O)N(C)C1CC2(C1)CN(C)C2 (stereo not shown) [Example 202, 4-[6-(4-{[2-(3,3-difluorocyclobutyl)acetyl]amino}thiophen-2-yl)pyrazin-2-yl]-2-methoxy-N-methyl-N-(2-methyl-2-azaspiro [3.3]hept-6-yl) benzamide]	11 to 100
